# According to US12472206B2, “Pharmaceutical composition containing cerium compound as active ingredient” (priority 2020, dated 2025):
# “Also recorded” adds a separate entry of the source.
# Key:
# [1] = tested on: 5/6 nephrectomized model rats; conditions: 5/6 nephrectomized rats, in feed
# Method: Slc:Wistar rat, 5/6 nephrectomized
# (1) The 5/6 nephrectomized model rats were weighed, and classified into three groups.
# (2) Each group was acclimatized with MR stock feed, under ad libitum feeding and ad libitum water drinking. The feeding cage was conditioned at room temperature 22±2° C., under illumination 12 hours a day.
# (3) The animals were then bred with the prepared special feed under ad libitum feeding and ad libitum water drinking. The feeding cage was conditioned similarly to the acclimatization period, at room temperature 22±2° C., under illumination 12 hours a day.
# (4) On Days 0, 7, 14, 21, and 28, rats were bred in metabolic cages for 24 hours. The animals were fed with Labo MR stock on Day 0, and with the special feed on days thereafter, during which the amounts of feed consumption, water consumption, urine and feces were measured, and the urine and feces were sampled.
# (5) The animals were taken out of the metabolic cage and weighed, followed by blood collection with a winged needle. Approximately 400 μL of blood was collected, incubated at room temperature for one hour, and then centrifuged (1,700×g, 20 min) to obtain serum.
# (6) On the final Day 28, the animals were fasted throughout the day, and then dissected. […] The collected blood was centrifuged (1,700×g, 20 min) to obtain serum. Liver, kidney, spleen, small intestine, and stomach of the rats that were exsanguinated to death were sampled. The small intestine and stomach were dissected, removed contents, and rinsed twice with PBS. The above sequence of procedures was repeated three times to assign six animals to each group. […]
# The above four items were measured with use of Hitachi 7180 automatic analyzer.
# ALT was measured only for blood samples collected on the last day.
# [2] = Phosphorus adsorption experiment, Example 2-3 (particle 1 vs lanthanum carbonate); assay type: binding; conditions: one hour
# Method: Three mmol/L aqueous phosphoric acid solutions with pH 2.5 and pH 7.0 were prepared. The pH was adjusted with Bis-Tris HCl buffer solution and glycine-HCl buffer solution (phosphoric acid, sodium chloride, and glycine from FUJIFILM Wako Pure Chemical Corporation; Bis-Tris from Dojindo Laboratories).
# A freely selectable amount of particle 1 was added to each of the aqueous solutions.
# Each of these dispersions was kept stirred at 38° C. for one hour in a thermostatic chamber.
# Also, a freely selectable amount of a commercially available lanthanum carbonate reagent (from Nikki Corporation) was added in the same way, and each dispersion was kept stirred at 38° C. for one hour in a thermostatic chamber.
# Each solution was then centrifuged (10,000×g, 5 min) for solid-liquid separation, and the supernatant was collected.
# Phosphoric acid remained in the collected supernatant was evaluated by colorimetry, with use of a commercially available phosphoric acid detection reagent (Trade name: PiBlue Phosphate Assay Kit; POPB-500) that contains molybdenum blue and malachite green.
# The reciprocal of the mass of the particle required to entirely adsorb 3 mmol of phosphoric acid was defined as adsorptivity to phosphorus, and was illustrated in FIG. 6.
# [3] = tested on: adenine nephropathy model rats; experiment: Animal experiment (2) (Example 7): adenine nephropathy model rats fed with cerium-containing feed, blood analysis; assay type: in vivo
# From the text: Adenine nephropathy model rats were fed with a dispersion (cerium oxide dispersion) that contains cerium(III) ion as a cerium compound containing trivalent cerium, and cerium oxide.
# • Rat: Slc:Wistar rat (male) delivered at 12 weeks of age (Japan SLC, Inc.) • Powder feed: AIN-93G powder feed (Funabashi Farm Co., Ltd.) • Feed for laboratory animal: Labo MR Stock (Nosan Corporation) • Adenine: (Tokyo Chemical Industry Co., Ltd.) • Cerium oxide dispersion: Cerium oxide dispersion prepared in [Preparation of Cerium Oxide Dispersion] (aqueous dispersion of cerium oxide with 10.0% by mass cerium oxide, mole ratio of cerium oxide:cerium(III)=9:1 • Cerium(III) chloride: cerium(III) chloride heptahydrate (Nikki Corporation) • Water or hot water: water passed through a water purifier, and boiled in a pot • Mixer for feed preparation: Compact Kitchen Machine MUM4415JP (Bosch GmbH) • Manual sausage maker: sausage machine (COM4SPORT) • Wing blood collection needle for animal experiment: CL-4597 (CLEA Japan, Inc.) [Preparation of Cerium Oxide Dispersion]
# A special feed was prepared by modifying step (ii) for preparing the feed for normal group, as described below. […] Approximately 100 mL of hot water was then added evenly.
# (§1) A special feed was prepared by modifying steps (i) and (ii) for (2) Feed for Adenine Group, as described below. (i) (Ade+Dispersion (A)): Weighed was 246.1 g of the powder feed, which was then stirred with a kitchen machine. (ii) (Ade+Dispersion (A)): While keeping the feed under stirring, 0.625 g of adenine was added in small portions, the content was stirred with the kitchen machine for 3 minutes, the feed adhered on the wall surface was scraped off, and the content was stirred again for 3 minutes. Next, while keeping the feed under stirring, 32.7 g of cerium oxide dispersion was added in small portions, the content was stirred with the kitchen machine for 3 minutes, the feed adhered on the wall surface was scraped off, and the content was stirred again for 3 minutes. Approximately 70 mL of hot water was then added evenly.
# as §1, with “(ii)” for “A special feed was prepared by modifying steps (i) and (ii) for (2) Feed for Adenine Group, as described below. (i) (Ade+Dispersion (A)): Weighed was 246.1 g of the powder feed, which was then stirred with a kitchen machine. (ii)”, “(B)):” for “(A)):”, “98.2” for “32.7”, “12” for “70”
# (1) Rats were weighed, and classified into four groups.
# FIGS. 12 to 15 illustrate graphs plotting on the ordinates test values of serum creatinine (CRE), blood urea nitrogen (BUN), serum phosphorus (IP), or alanine aminotransferase (ALT) of the blood samples collected at the time of the dissection, and plotting on the abscissae total molar amount of cerium per 100 g of feed.
# The effect of cerium(III) chloride was examined with use of the following feeds (4-1) to (4-3), in place of the (3-1) Feed for adenine+cerium oxide dispersion (A) group, and the (3-2) Feed for adenine+cerium oxide dispersion (B) group described in Preparation of Feeds according to Example 7-1. […]
# [4] = adenine nephropathy rats, in feed, blood collected at dissection
SMILES,blood urea nitrogen (BUN) ([1]; Days 0-28),serum creatinine (CRE) ([1]; Days 0-28),serum ALT (GPT) level ([1]; blood of the last day),"mass of the particle required to entirely adsorb 3 mmol of phosphoric acid ([2]; pH 2.5, 38° C.) [g]","mass of the particle required to entirely adsorb 3 mmol of phosphoric acid ([2]; pH 7.0, 38° C.) [g]","effects on CRE, BUN and IP relative to the cerium oxide dispersion, per molar amount of cerium ([3]; adenine group normalized at 100) [times]","alanine aminotransferase (ALT) [3, 4]","blood urea nitrogen (BUN) [3, 4]","serum creatinine (CRE) [3, 4]","serum phosphorus (IP) [3, 4]"
O=C([O-])[O-].O=C([O-])[O-].O=C([O-])[O-].[La+3].[La+3] [lanthanum carbonate],slightly increase as compared with the cerium oxide-added groups,slightly increase as compared with the cerium oxide-added groups,distinctively increased as compared with those of the non-added group,1.15,5.95,–,–,–,–,–
"O.O.O.O.O.O.O.[Ce+3].[Cl-].[Cl-].[Cl-] [cerium chloride, cerium(III) chloride heptahydrate]",–,–,–,–,–,4 to 9,equivalent to that in the normal group; also recorded: equivalent to the level of the normal group,declines depending on the cerium chloride content (mol) in 100 g of feed; also recorded: decrease as the cerium chloride content in the feed increased,declines depending on the cerium chloride content (mol) in 100 g of feed; also recorded: decrease as the cerium chloride content in the feed increased,declines depending on the cerium chloride content (mol) in 100 g of feed; also recorded: decrease as the cerium chloride content in the feed increased
